{
  "source": "patent US10493103B2",
  "about": "“Peroxide formulations and methods and applicators for using the same” (ACLARIS THERAPEUTICS, INC., priority 2014, dated 2019)",
  "origin": "cited, not measured here",
  "system": "seborrheic keratosis",
  "key": {"[1]": {"conditions": "applied once daily for 16 weeks"}},
  "note": "Where two headings read alike, the source gives them in different places.",
  "data": [
    {"compound": "CC(C)Cn1cnc2c(N)nc3ccccc3c21", "note": "[imiquimod cream, imiquimod]", "values": [
      {"measurement": "effectiveness in seborrheic keratosis", "setting": "[1]", "value": "ineffective"}
    ]},
    {"compound": "CCOC(=O)c1ccc(C#Cc2ccc3c(c2)C(C)(C)CCS3)nc1", "note": "[tazarotene 0.1%, tazarotene]", "values": [
      {"measurement": "complications of therapy", "setting": "applied twice daily", "value": "burning, pruritus and redness"},
      {"measurement": "subjects with efficacy", "setting": "applied twice daily, off-label, 7/15 subjects", "value": 47, "unit": "%"}
    ]},
    {"compound": "C=C1/C(=C\\C=C2/CCC[C@]3(C)[C@@H]([C@H](C)/C=C/[C@@H](O)C4CC4)CC[C@@H]23)C[C@@H](O)C[C@@H]1O", "note": "[calcipotriene ointment, calcipotriene]", "values": [
      {"measurement": "effectiveness in seborrheic keratosis", "setting": "[1]", "value": "ineffective"}
    ]},
    {"compound": "C=C1CC[C@H](O)C/C1=C/C=C1\\CCC[C@]2(C)[C@@H]([C@H](C)CCCC(C)C)CC[C@@H]12", "note": "[topical vitamin D3 ointment, vitamin D3]", "values": [
      {"measurement": "patients with an 80% or more improvement in lesions", "setting": "once or twice daily for an average of 7.3 months (range 3-12 months)", "value": 30, "unit": "%"}
    ]},
    {"compound": "CC(O)C(=O)O.N", "note": "(stereo not shown) [ammonium lactate]", "values": [
      {"measurement": "effectiveness in seborrheic keratosis", "setting": "in vivo", "value": "ineffective"}
    ]},
    {"compound": "CCOC(=O)c1ccc(C#Cc2ccc3c(c2)C(C)(C)CCS3)nc1", "note": "[tazarotene cream, tazarotene]", "values": [
      {"measurement": "effectiveness in seborrheic keratosis", "setting": "[1]", "value": "ineffective"}
    ]}
  ]
}
